{"source": "paper PMC2879659", "about": "(International journal of comparative psychology / ISCP ; …, 2010)", "key": {"zebrafish (Danio rerio) [1]": {"test_system": "zebrafish (Danio rerio)", "assay": "Novel dive tank test", "settings": "3 min exposure"}, "zebrafish (Danio rerio) [2]": {"test_system": "zebrafish (Danio rerio)", "assay": "Novel aquatic light/dark plus maze test", "type": "in vivo", "settings": "for time frozen in the center of the maze: PETCO San Antonio zebrafish, N = 5-6, controls 81 ± 48 s"}, "zebrafish (Danio rerio) [3]": {"test_system": "zebrafish (Danio rerio)", "settings": "cited from earlier work; for bottom dwelling by zebrafish, effect: another study, ref Bencan, Sledge, & Levin, 2009"}, "zebrafish": {"test_system": "zebrafish", "settings": "ref Lau et al., 2010; cited from earlier work"}, "zebrafish (Danio rerio) [4]": {"test_system": "zebrafish (Danio rerio)", "settings": "0.05 h, 125 ug/mL"}, "[5]": {"settings": "25 mg/L, Aquatic Eco-Systems zebrafish, N = 9"}, "[6]": {"settings": "25 mg/L, PETCO zebrafish, N = 8"}, "[7]": {"settings": "125 mg/L, PETCO zebrafish, N = 4, not significant vs untreated"}, "[8]": {"settings": "50 and 100 mg/L, zebrafish from PETCO San Antonio, TX"}, "[9]": {"settings": "nicotine 25 mg/L, AB, WIK, PETCO and GloFish lines"}}}
{"smiles": "C[S+](C)[O-]", "note": "[DMSO]", "values": [{"measurement": "time spent in top 2/3 of dive tank, effect vs controls", "setting": "zebrafish (Danio rerio) [1]; 0.05% DMSO, PETCO zebrafish", "result": "no significant anxiolytic effect"}, {"measurement": "total arm entries, effect vs controls", "setting": "zebrafish (Danio rerio) [2]; 0.05% DMSO, PETCO zebrafish, N = 8", "result": "significant increase in total arm entries"}, {"measurement": "time in white arms, effect vs controls", "setting": "zebrafish (Danio rerio) [2]; 0.05% DMSO, PETCO zebrafish, N = 8, p < 0.05", "result": "spent significantly more time in white arms than untreated controls"}]}
{"smiles": "O=C1CC2(CCCC2)CC(=O)N1CCCCN1CCN(c2ncccn2)CC1", "note": "[buspirone]", "values": [{"measurement": "bottom dwelling by zebrafish, effect", "setting": "zebrafish (Danio rerio) [3]", "result": "reduced bottom dwelling"}]}
{"smiles": "CNC1=Nc2ccc(Cl)cc2C(c2ccccc2)=[N+]([O-])C1", "note": "[chlordiazepoxide]", "values": [{"measurement": "time spent in top 2/3 of dive tank, effect vs controls", "setting": "zebrafish (Danio rerio) [1]; [5]", "result": "did not differ from untreated control fish"}, {"measurement": "total arm entries, effect", "setting": "zebrafish (Danio rerio) [2]; [5]", "result": "did not differ in total arm entries"}, {"measurement": "time in the white arms", "setting": "zebrafish (Danio rerio) [2]; 25 mg/L, Aquatic Eco-Systems zebrafish, N = 9, controls 60 ± 10 s", "result": "124 ± 25", "unit": "s"}, {"measurement": "white arm entries, % of total entries", "setting": "zebrafish (Danio rerio) [2]; 25 mg/L, Aquatic Eco-Systems zebrafish, N = 9, untreated 22 ± 2%", "result": "36 ± 5", "unit": "%"}, {"measurement": "time spent on the light side of a tank, effect", "setting": "zebrafish", "result": "increased the amount of time zebrafish spent on the light side of a tank"}]}
{"smiles": "CN(C)CCCC1(c2ccc(F)cc2)OCc2cc(C#N)ccc21", "note": "(stereo not shown) [citalopram]", "values": [{"measurement": "anxiolytic behaviors in the plus maze", "setting": "zebrafish (Danio rerio) [2]; 100 mg/L, Aquatic Eco-Systems zebrafish", "result": "neither desipramine nor citalopram produced any anxiolytic behaviors in the plus maze"}, {"measurement": "total arm entries, effect", "setting": "zebrafish (Danio rerio) [2]; 100 mg/L, Aquatic Eco-Systems zebrafish, N = 9", "result": "did not differ in total arm entries"}]}
{"smiles": "CNCCCN1c2ccccc2CCc2ccccc21", "note": "[desipramine]", "values": [{"measurement": "time spent in top of dive tank, effect vs untreated", "setting": "zebrafish (Danio rerio) [1]; [6]", "result": "significantly more time in the top of the dive tank than untreated fish"}, {"measurement": "anxiolytic behaviors in the plus maze", "setting": "zebrafish (Danio rerio) [2]; 25 mg/L, PETCO zebrafish", "result": "neither desipramine nor citalopram produced any anxiolytic behaviors in the plus maze"}, {"measurement": "arm entries, effect vs controls", "setting": "zebrafish (Danio rerio) [2]; [6]", "result": "Neither nicotine nor desipramine exposure had any effect on arm entries"}]}
{"smiles": "CN1C(=O)CN=C(c2ccccc2)c2cc(Cl)ccc21", "note": "[diazepam]", "values": [{"measurement": "bottom dwelling by zebrafish, effect", "setting": "zebrafish (Danio rerio) [3]", "result": "reduced bottom dwelling"}]}
{"smiles": "CCO", "note": "[ethanol]", "values": [{"measurement": "time spent in top 2/3 of dive tank, effect vs controls", "setting": "zebrafish (Danio rerio) [1]; 0.5% ethanol, PETCO zebrafish, p = 0.08", "result": "non-significant trend toward zebrafish spending more time in the top 2/3 of the tank"}, {"measurement": "total arm entries, effect vs controls", "setting": "zebrafish (Danio rerio) [2]; 0.5% ethanol, PETCO zebrafish, N = 7", "result": "significant increase in total arm entries"}, {"measurement": "time in white arms", "setting": "zebrafish (Danio rerio) [2]; 0.5% ethanol, PETCO zebrafish, N = 7, untreated controls 41 ± 17 s", "result": "126 ± 20", "unit": "s"}]}
{"smiles": "CN1CCC[C@H]1c1cccnc1", "note": "[nicotine]", "values": [{"measurement": "bottom dwelling in novel dive tanks, effect", "setting": "zebrafish (Danio rerio) [3]; 50 and 100 mg/L, previous studies, ref Levin et al., 2007", "result": "reduced zebrafish bottom dwelling at earlier time points"}, {"measurement": "time spent in top of dive tank, effect vs untreated", "setting": "zebrafish (Danio rerio) [1]; [6]", "result": "Neither 25 mg/L nicotine (NIC) nor 0.05% DMSO affected behavior in the dive tank"}, {"measurement": "time spent in top of dive tank, effect vs untreated", "setting": "zebrafish (Danio rerio) [1]; nicotine 25 mg/L, AB, WIK, PETCO and GloFish lines, 5 min test", "result": "no significant anxiolytic effect"}, {"measurement": "arm entries, effect vs controls", "setting": "zebrafish (Danio rerio) [2]; [6]", "result": "Neither nicotine nor desipramine exposure had any effect on arm entries"}, {"measurement": "time frozen in the center of the maze", "setting": "zebrafish (Danio rerio) [2]; 50 mg/L", "result": "9 ± 5", "unit": "s"}, {"measurement": "time frozen in the center of the maze", "setting": "zebrafish (Danio rerio) [2]; 100 mg/L", "result": "198 ± 46", "unit": "s"}, {"measurement": "% of white entries", "setting": "zebrafish (Danio rerio) [2]; [7]", "result": "25 ± 3", "unit": "%"}, {"measurement": "arm entries", "setting": "zebrafish (Danio rerio) [2]; [7]", "result": "30 ± 9", "unit": "entries"}, {"measurement": "time frozen in the middle", "setting": "zebrafish (Danio rerio) [2]; [7]", "result": "57 ± 17", "unit": "s"}, {"measurement": "total time spent in white arms", "setting": "zebrafish (Danio rerio) [2]; [7]", "result": "56 ± 24", "unit": "s"}, {"measurement": "time spent in white arms, effect", "setting": "zebrafish (Danio rerio) [2]; [8]", "result": "no effect"}, {"measurement": "white arm entries, effect", "setting": "zebrafish (Danio rerio) [2]; [8]", "result": "no effect"}, {"measurement": "% white arm entries of total entries, effect", "setting": "zebrafish (Danio rerio) [2]; [9]", "result": "no effect"}, {"measurement": "initial time frozen in centre (latency to enter an arm), effect", "setting": "zebrafish (Danio rerio) [2]; [9]", "result": "no influence"}, {"measurement": "time spent in white arms, effect", "setting": "zebrafish (Danio rerio) [2]; [9]", "result": "nor was there an effect"}, {"measurement": "total number of arm entries, effect", "setting": "zebrafish (Danio rerio) [2]; [9]", "result": "no effect"}, {"measurement": "time at the dive tank top", "setting": "zebrafish (Danio rerio) [4]", "result": "4 ± 4", "unit": "s"}]}
{"smiles": "COC(=O)[C@@H]1[C@H]2C[C@H]3c4[nH]c5ccccc5c4CCN3C[C@@H]2CC[C@@H]1O", "note": "[yohimbine]", "values": [{"measurement": "time spent in top 2/3 of dive tank, effect vs controls", "setting": "zebrafish (Danio rerio) [1]; [5]", "result": "did not differ from untreated control fish"}, {"measurement": "total arm entries, effect", "setting": "zebrafish (Danio rerio) [2]; [5]", "result": "did not differ in total arm entries"}]}
